Where “and” joins values, the source holds several entries; their conditions need not be identical. Identical values can stand only once. Toxic doses and inconclusive results are not listed. Rule for the calls: active = survival T/C of 150% or more; inactive = T/C below 125% in these data.
Tested on: CD2F1 mice, L1210 leukemia ip, survival T/C
Test: NCI In Vivo Anticancer Drug Screen. Data for tumor model L1210 Leukemia (intraperitoneal) in CD2F1 (CDF1) mice
Conditions: higher = longer survival
Summary of the method: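 Transplantable tumor in mice; compound-treated vs vehicle-treated groups. Read-out = treated/control ratio of the measured endpoint.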

[1] = endpoint: mean survival time, dose: 100.0 mg/kg/injection, schedule: Q04DX003 (ip), vehicle: saline with Tween-80
[2] = endpoint: mean survival time, dose: 200.0 mg/kg/injection, schedule: Q04DX003 (ip), vehicle: saline with Tween-80
[3] = endpoint: mean survival time, dose: 400.0 mg/kg/injection, schedule: Q04DX003 (ip), vehicle: saline with Tween-80
[4] = endpoint: mean survival time, dose: 100.0 mg/kg/injection, schedule: Q01DX009 (ip), vehicle: saline with Tween-80
[5] = endpoint: mean survival time, dose: 200.0 mg/kg/injection, schedule: Q01DX009 (ip), vehicle: saline with Tween-80
[6] = endpoint: mean survival time, dose: 400.0 mg/kg/injection, schedule: Q01DX009 (ip), vehicle: saline with Tween-80

Measured: T/C

CC1CN1C(=O)OCCOC(=O)N1CC1C (stereo not drawn)
inactive: endpoint: mean survival time, dose: 200.0 mg/kg/injection, schedule: Q01DX Z (ip), vehicle: saline 120 % of control | endpoint: mean survival time, dose: 300.0 mg/kg/injection, schedule: Q01DX Z (ip), vehicle: saline 117 % of control | endpoint: mean survival time, dose: 450.0 mg/kg/injection, schedule: Q01DX Z (ip), vehicle: saline 117 % of control

N#C/C(=C\C1CCC(Cl)C(Cl)C1)C1CCC([N+](=O)[O-])CC1 (stereo not drawn)
inactive: endpoint: mean survival time, dose: 25.0 mg/kg/injection, schedule: Q04DX002 (ip), vehicle: saline with Tween-80 94 % of control | endpoint: mean survival time, dose: 50.0 mg/kg/injection, schedule: Q04DX002 (ip), vehicle: saline with Tween-80 88 % of control

CCCCS(=O)C(Cl)(CCC)C(C)(C)O (stereo not drawn)
inactive: [1] 97 % of control | [2] 93 % of control | [3] 97 % of control

O=C(O)C(O)CO.O=C(O)C(O)CO.[NH-]C1CCCCC1[NH-].[Pt+2] (stereo not drawn)
inactive: endpoint: mean survival time, dose: 2.5 mg/kg/injection, schedule: Q04DX003 (ip), vehicle: other 124 % of control

Cc1ccc(S(=O)(=O)/N=S(/C)CC/S(C)=N/S(=O)(=O)c2ccc(C)cc2)cc1 (stereo not drawn)
inactive: endpoint: mean survival time, dose: 100.0 mg/kg/injection, schedule: Q01DX001 (ip), vehicle: Klucel (hydroxypropylcellulose) (HPC) 97 % of control | endpoint: mean survival time, dose: 200.0 mg/kg/injection, schedule: Q01DX001 (ip), vehicle: Klucel (hydroxypropylcellulose) (HPC) 102 % of control | endpoint: mean survival time, dose: 400.0 mg/kg/injection, schedule: Q01DX001 (ip), vehicle: Klucel (hydroxypropylcellulose) (HPC) 100 % of control

Cc1cc(C)c(O)c(C(=O)CC2CC(=O)NC(=O)C2)c1
inactive: [4] 100 % of control | [1] 95 % of control | [5] 105 % of control | [2] 97 % of control | [6] 101 % of control | [3] 95 % of control

CCCCN(CCCC)CCCN1C(=O)c2ccccc2C1=O
inactive: endpoint: mean survival time, dose: 1.9 mg/kg/injection, schedule: Q01DX009 (ip), vehicle: saline 97 % of control | endpoint: mean survival time, dose: 3.7 mg/kg/injection, schedule: Q01DX009 (ip), vehicle: saline 107 % of control | endpoint: mean survival time, dose: 7.5 mg/kg/injection, schedule: Q01DX009 (ip), vehicle: saline 100 % of control | endpoint: mean survival time, dose: 15.0 mg/kg/injection, schedule: Q01DX009 (ip), vehicle: saline 87 % of control | endpoint: mean survival time, dose: 30.0 mg/kg/injection, schedule: Q01DX009 (ip), vehicle: saline 89 % of control and 105 % of control

CN(C)[C@@H]1C(=O)C(C(=O)NCN2CCN(C(=N)N=C(N)N)CC2)=C(O)[C@@]2(O)C(=O)C3=C(O)c4c(O)cccc4[C@@](C)(O)[C@H]3C[C@@H]12
inactive: endpoint: mean survival time, dose: 1.25 mg/kg/injection, schedule: Q01DX001 (ip), vehicle: saline 111 % of control | endpoint: median survival time, dose: 0.31 mg/kg/injection, schedule: Q01DX009 (ip), vehicle: saline 107 % of control | endpoint: median survival time, dose: 0.62 mg/kg/injection, schedule: Q01DX009 (ip), vehicle: saline 110 % of control | endpoint: median survival time, dose: 1.25 mg/kg/injection, schedule: Q01DX009 (ip), vehicle: saline 103 % of control | endpoint: median survival time, dose: 2.0 mg/kg/injection, schedule: Q01DX009 (ip), vehicle: saline 109 % of control | endpoint: median survival time, dose: 5.0 mg/kg/injection, schedule: Q01DX009 (ip), vehicle: saline 87 % of control

Cn1c(=O)c2c(ncn2C2C(=O)NNC2=O)n(C)c1=O
inactive: endpoint: mean survival time, dose: 12.5 mg/kg/injection, schedule: Q01DX005 (ip), vehicle: distilled water + Tween-80 102 % of control | endpoint: mean survival time, dose: 25.0 mg/kg/injection, schedule: Q01DX005 (ip), vehicle: distilled water + Tween-80 104 % of control | endpoint: mean survival time, dose: 50.0 mg/kg/injection, schedule: Q01DX005 (ip), vehicle: distilled water + Tween-80 104 % of control | endpoint: mean survival time, dose: 100.0 mg/kg/injection, schedule: Q01DX005 (ip), vehicle: distilled water + Tween-80 98 % of control | endpoint: mean survival time, dose: 200.0 mg/kg/injection, schedule: Q01DX005 (ip), vehicle: distilled water + Tween-80 92 % of control | endpoint: mean survival time, dose: 400.0 mg/kg/injection, schedule: Q01DX005 (ip), vehicle: distilled water + Tween-80 95 % of control

O=C(O)c1cc(Cl)c(C(=O)O)cc1Cl
inactive: [1] 96 % of control | [2] 102 % of control | [3] 105 % of control

O=C1c2ccccc2C2c3ccccc3CCN12 (stereo not drawn)
inactive: [4] 103 % of control | [1] 104 % of control | [5] 97 % of control | [2] 102 % of control | [6] 97 % of control | [3] 102 % of control

CS/C([S-])=N/N=C\c1ccccn1.CS/C([S-])=N/N=C\c1ccccn1.[Fe+2]
inactive: [1] 103 % of control | [2] 91 % of control | [3] 91 % of control

O=c1cc2cccccc-2cc1O
inactive: endpoint: mean survival time, dose: 5.0 mg/kg/injection, schedule: Q01DX001 (ip), vehicle: saline 103 % of control | endpoint: mean survival time, dose: 10.0 mg/kg/injection, schedule: Q01DX001 (ip), vehicle: saline 97 % of control | endpoint: mean survival time, dose: 20.0 mg/kg/injection, schedule: Q01DX001 (ip), vehicle: saline 101 % of control | endpoint: mean survival time, dose: 20.0 mg/kg/injection, schedule: Q04DX003 (ip), vehicle: saline with Tween-80 97 % of control | endpoint: mean survival time, dose: 40.0 mg/kg/injection, schedule: Q01DX001 (ip), vehicle: saline 103 % of control | endpoint: mean survival time, dose: 40.0 mg/kg/injection, schedule: Q04DX003 (ip), vehicle: saline with Tween-80 97 % of control | endpoint: mean survival time, dose: 80.0 mg/kg/injection, schedule: Q01DX001 (ip), vehicle: saline 97 % of control

N=C(N)c1ccc(/C=C/c2ccc(C(=N)N)cc2O)cc1
inactive: endpoint: mean survival time, dose: 3.12 mg/kg/injection, schedule: Q01DX009 (ip), vehicle: water 91 % of control | endpoint: mean survival time, dose: 6.25 mg/kg/injection, schedule: Q01DX009 (ip), vehicle: water 97 % of control | endpoint: mean survival time, dose: 12.5 mg/kg/injection, schedule: Q01DX009 (ip), vehicle: water 103 % of control | endpoint: mean survival time, dose: 25.0 mg/kg/injection, schedule: Q01DX009 (ip), vehicle: water 105 % of control | endpoint: mean survival time, dose: 50.0 mg/kg/injection, schedule: Q01DX009 (ip), vehicle: water 111 % of control

CC[CH2][Sn]([CH2]CC)([CH2]CC)[O][Sn]([CH2]CC)([CH2]CC)[CH2]CC
inactive: endpoint: mean survival time, dose: 125.0 micrograms/kg/injection, schedule: Q01DX009 (ip), vehicle: saline 95 % of control | endpoint: mean survival time, dose: 250.0 micrograms/kg/injection, schedule: Q01DX009 (ip), vehicle: saline 95 % of control | endpoint: mean survival time, dose: 500.0 micrograms/kg/injection, schedule: Q01DX009 (ip), vehicle: saline 106 % of control | endpoint: mean survival time, dose: 1000.0 micrograms/kg/injection, schedule: Q01DX009 (ip), vehicle: saline 93 % of control

O=CCCNP(=O)(OCc1ccccc1)N(CCCl)CCCl (stereo not drawn)
inactive: endpoint: mean survival time, dose: 13.13 mg/kg/injection, schedule: Q01DX001 (ip), vehicle: DMSO 103 % of control | endpoint: mean survival time, dose: 26.25 mg/kg/injection, schedule: Q01DX001 (ip), vehicle: DMSO 98 % of control | endpoint: mean survival time, dose: 52.5 mg/kg/injection, schedule: Q01DX001 (ip), vehicle: DMSO 103 % of control | endpoint: mean survival time, dose: 105.0 mg/kg/injection, schedule: Q01DX001 (ip), vehicle: DMSO 104 % of control | endpoint: mean survival time, dose: 210.0 mg/kg/injection, schedule: Q01DX001 (ip), vehicle: DMSO 101 % of control | endpoint: mean survival time, dose: 420.0 mg/kg/injection, schedule: Q01DX001 (ip), vehicle: DMSO 101 % of control | endpoint: mean survival time, dose: 840.0 mg/kg/injection, schedule: Q01DX001 (ip), vehicle: DMSO 101 % of control

c1cc(C[N+]23CN4CN(CN(C4)C2)C3)cs1
inactive: [1] 91 % of control

C1C2CC3CC3CC12 (stereo not drawn)
inactive: [1] 93 % of control

O=C(Nc1ccc2c3c(ccc(NC(=O)c4ccccc4)c13)C=C2)c1ccccc1
inactive: [4] 95 % of control | [6] 89 % of control

CC1C(N2CCCCC2)CS1(=O)=O (stereo not drawn)
inactive: endpoint: mean survival time, dose: 25.0 mg/kg/injection, schedule: Q04DX002 (ip), vehicle: saline 104 % of control | endpoint: mean survival time, dose: 50.0 mg/kg/injection, schedule: Q04DX002 (ip), vehicle: saline 101 % of control | endpoint: mean survival time, dose: 100.0 mg/kg/injection, schedule: Q04DX002 (ip), vehicle: saline 108 % of control

C[Si](OP(=O)(O[Si](C)(c1ccccc1)c1ccccc1)N(CCCl)CCCl)(c1ccccc1)c1ccccc1
inactive: endpoint: mean survival time, dose: 15.63 mg/kg/injection, schedule: Q01DX001 (ip), vehicle: distilled water + Tween-80 104 % of control | endpoint: mean survival time, dose: 31.25 mg/kg/injection, schedule: Q01DX001 (ip), vehicle: distilled water + Tween-80 97 % of control | endpoint: mean survival time, dose: 62.5 mg/kg/injection, schedule: Q01DX001 (ip), vehicle: distilled water + Tween-80 101 % of control | endpoint: mean survival time, dose: 125.0 mg/kg/injection, schedule: Q01DX001 (ip), vehicle: distilled water + Tween-80 95 % of control | endpoint: mean survival time, dose: 250.0 mg/kg/injection, schedule: Q01DX001 (ip), vehicle: distilled water + Tween-80 97 % of control | endpoint: mean survival time, dose: 500.0 mg/kg/injection, schedule: Q01DX001 (ip), vehicle: distilled water + Tween-80 115 % of control

Reference: PubChem BioAssay AID256 (DTP/NCI, 2004)
